Experimental data: US20110076331A1, “Use of Deuterium Oxide as an Elastase Inhibitor” (priority 2008, published 2011)

What was measured:
Syrian Gold hamsters [1] = assay: D2O instillation in an animal model of COPD (HNE-induced hemorrhage); format: in vivo, hamster
Experimental: To investigate the effect of D2O in a model for chronic obstructive pulmonary disease (COPD) male Syrian Gold hamsters (average weight 118 g±4 g) were divided into two groups (experimental group and control group) of 10 hamsters each. The animals of both groups were initially anesthetized intraperitoneally (ketamine 95 mg/kg and xylazine 17 mg/kg) and then intubated endotracheally with direct laryngoscopy. The experimental group received 250 μL of 0.9% NaCl solution based on D2O (98.5% deuterium enrichment) instilled, whereas 250 μL of a corresponding isotonic NaCl solution based on H2O was used in the control group. Each animal received after the end of this instillation a second instillation at a time interval of 30 minutes, which was identical for both groups: 100 μL of human neutrophil elastase (HNE, 500 μg/mL in sterile 0.9% NaCl solution). The animals were killed 4 hours (six animals per group) or 24 hours (four animals per group) after the last instillation (phenobarbital 70 mg/kg intraperitoneally).
For the animals killed 4 hours after instillation a BAL (bronchoalveolar lavage) was performed. 2.5 mL 0.9% NaCl solution was repeatedly instilled (total 3 times) for BAL and the hemoglobin concentration in the instillate then determined spectrophotometrically. The obtained value was used as a gauge for lung damage (hemorrhage) by human neutrophil elastase (HNE). For the control group an average hemoglobin value of 320±50 mOD (milli-optical density) was obtained. For the experimental group an average hemoglobin value of 170±20 mOD was measured.
For the animals killed 24 hours after instillation the lungs were removed, fixed in formalin and embedded in paraffin. Histologic longitudinal sections of the lungs in the direction of the lung hilus were prepared, stained and made visible with iron by means of an histochemical reaction (Berlin blue reaction), which serves as a gauge for the intensity of HNE-induced hemorrhage. The microscopic investigation of the sections gave the following result: […]

[2] = system: patients with type 1 sensitization and allergic rhinitis; assay: Nasal spray in allergic rhinitis; format: in vivo, human; details: isotonic saline using 70% D2O, 6 times a day, 14 days, vs H2O group
Experimental: A solution with D2O was prepared accordingly for application as nasal spray. […] The number of sneezing attacks was determined and the intensity of runny nose and nasal itching measured by visual analog scales as parameters. For this purpose a patient diary was used.
A solution with D2O was prepared according to example 21 for use as nasal spray. […] The number of sneezing attacks was determined as parameter and the intensity of runny nose and nasal itching were measured by visual analog scales. For this purpose a patient diary was used.

[3] = system: elastase activity in the blister fluid; assay: Ex vivo bullous pemphigoid blister fluid: degradation of recombinant BP180 antigen; format: biochemical, human; details: added to blister fluid; autoradiography after gel electrophoresis; vs untreated control
Experimental: The blister fluid in patients with bullous pemphigoid was sampled in an ex vivo model (Verraes et al., 2001). Recombinant radioactively-labeled BP180 antigen, the target antigen in this disease, was then added to the blister fluid and decay determined autoradiographically after gel electrophoresis. For inhibition of elastase activity in the blister fluid either D2O or the elastase inhibitor chloromethyl ketone was added to it. An untreated control served as comparison. Both with chloromethyl ketone and with D2O the degradation of the recombinant BP180 antigen could be inhibited, whereas the protein was almost completely degraded by the untreated blister fluid.

[4] = system: patients with Wegener's disease; assay: D2O infusions in Wegener's granulomatosis (open study); format: in vivo, human; details: 500 mL isotonic saline prepared with 70% D2O infused once a day over a week in addition to individual therapy; vs conventionally treated patients
Experimental: Activation of neutrophil granulocytes is assigned importance in the pathogenesis of Wegener granulomatosis. The disease activity can be determined by determining proteinase 3-antineutrophil cytoplasmic antibodies (PR3-ANCA).
In patients with Wegener's disease in an open study the effect of additional infusion of 500 mL of an isotonic saline solution prepared with 70% D2O was investigated once a day over a week in addition to individual systemic therapy in five patients. Determination of PR3-ANCA in the serum before and after 1 week after the last D2O infusion served as control parameter. Five patients in whom individual therapy was used exclusively without additional infusions served as comparison. […] This permits the conclusion that systemic use of D2O for adjunctive therapy of systemic vasculites is suitable.

Syrian Gold hamsters [5] = assay: D2O aerosols in an animal model of COPD (HNE-induced hemorrhage); format: in vivo, hamster
Experimental: The employed H2O was distilled and ion-exchanged. Both D2O and H2O were sterile. A Pari LC Plus universal atomizer (PARI GmbH, Starnberg, Germany) was used for aerosolization combined with a Pari universal compressor, which generated 200 mg/min polydispersed aerosol with an average particle size (median diameter) of 2.5 μm for pure H2O and pure D2O and 2.5-4.5 μm for H2O and D2O with additional non-pharmaceutical and/or pharmaceutical agents (operating pressure 2.0 bar, flow rate of the compressor air was 6.0 L/min). The particle size measurement occurred with dynamic light scattering in a flow cell. Aerosol generation occurred at a temperature of 37° C. by corresponding thermostating of the atomizer in a water bath thermostat.
Male Syrian Gold hamsters (average weight 105 g±8 g) were divided into two groups (experimental group and control group) of six hamsters each. The animals of both groups were anesthetized intraperitoneally (ketamine 95 mg/kg and xylazine 17 mg/kg) and then intubated endotracheally by direct laryngoscopy. Both groups received 100 μL of human neutrophil elastase (500 μg/mL in sterile 0.9% NaCl solution) instilled. […] For BAL 2.5 mL 0.9% NaCl solution was repeatedly instilled (total of three times) and the hemoglobin concentration then determined in the instillate speetrophotometrically. […] For the experimental group an average hemoglobin value of 120±20 mOD was measured. […]

SMILES: [2H]O[2H] [D2O, deuterium oxide]
- average hemoglobin value in BAL (Syrian Gold hamsters [1]; 250 μL 0.9% NaCl solution based on D2O instilled 30 minutes before HNE, animals killed 4 hours after instillation): 170±20 mOD
- blue-stained cells in lung sections (Berlin blue reaction), intensity of HNE-induced hemorrhage (Syrian Gold hamsters [1]; animals killed 24 hours after instillation, vs H2O control group): significantly smaller number of blue-stained cells
- inhibition of the acute lung damage caused by elastase (hemorrhage) (Syrian Gold hamsters [1]; instillation, from reduction in hemoglobin concentration in BAL vs H2O control group, 4 hours): 47%
- sneezing attacks, intensity of runny nose and nasal itching (recorded parameters) [2]: significant reduction of the recorded parameters
- degradation of the recombinant BP180 antigen [3]: inhibited
- PR3-ANCA values in the serum [4]: stronger reduction of PR3-ANCA values
- inhibition of acute lung damage caused by elastase (hemorrhage) (Syrian Gold hamsters [5]; D2O aerosol 24 hours, from reduction in hemoglobin concentration vs H2O aerosol control group): 60%
- average hemoglobin value in BAL (Syrian Gold hamsters [5]; continuous D2O aerosol in respiration air for 24 hours after HNE instillation): 120±20 mOD
